9 compounds from patent publication US10442931B2, “Dye compound, composition comprising dye compound, and display device using dye compound” (Samsung Display Co. Ltd., priority 2017, dated 2019) can be followed below.

Some results are limits rather than exact numbers.

Data set [1] can be described thus: Maximum absorption wavelength band and absorbance, Shimadzu UV-1800 UV-vis spectrophotometer. The data set is classed as physicochemical. As for the experimental part:
(§1) The maximum absorption wavelength bands and absorbance were measured using Shimadzu UV-1800 UV-vis. Spectrophotometer. Whether having lipid solubility was determined to be lipid soluble when the solubility of the compounds in MEK, PGMEA, cyclo-hexanone, or toluene was 1 wt % or more.

Data set [2] can be described thus: Whether having lipid solubility (solubility in MEK, PGMEA, cyclo-hexanone, or toluene). In kind it is physicochemical. As for the experimental part:
as §1

Take `CCCCOc1ccc(/N=N/c2ccc(N3CCN(c4ccc(/N=N/c5ccc(OCCCC)cc5)cc4)CC3)cc2)cc1` [Compound A124]: the “Maximum absorption wavelength band” value in data set [1] is listed as 500-600 nm. In data set [2], the “Whether having lipid solubility” value is listed as “∘ (determined to be lipid soluble when the solubility of the compounds in MEK, PGMEA, cyclo-hexanone, or toluene was 1 wt % or more)”.

Regarding `CCN(CC)c1ccc(/N=N/c2ccc(N3CCN(c4ccc(/N=N/c5ccc(N(CC)CC)cc5O)cc4)CC3)cc2)c(O)c1` [Compound A132], the “Maximum absorption wavelength band” value in data set [1] is 500-600 nm. For the same compound, the “Whether having lipid solubility” value in data set [2] is given as “∘ (determined to be lipid soluble when the solubility of the compounds in MEK, PGMEA, cyclo-hexanone, or toluene was 1 wt % or more)”.

With `CCCCN(C)c1ccc(/N=N/c2ccc(N3CCN(c4ccc(/N=N/c5ccc(N(C)CCCC)cc5)cc4)CC3)cc2)cc1` [Compound A133], the “Maximum absorption wavelength band” value in data set [1] was 500-600 nm. Further, the “Whether having lipid solubility” value in data set [2] is “∘ (determined to be lipid soluble when the solubility of the compounds in MEK, PGMEA, cyclo-hexanone, or toluene was 1 wt % or more)”.

For the compound `C=C(C)C(=O)N(CC)c1ccc(/N=N/c2ccc(N3CCN(c4ccc(/N=N/c5ccc(N(CC)C(=O)C(=C)C)cc5C)cc4)CC3)cc2)c(C)c1` [Compound A138], the “Maximum absorption wavelength band” value in data set [1] is listed as 500-600 nm. The “Whether having lipid solubility” value in data set [2] was “∘ (determined to be lipid soluble when the solubility of the compounds in MEK, PGMEA, cyclo-hexanone, or toluene was 1 wt % or more)”.

Regarding `CCCCN(C)c1ccc(/N=N/c2ncc(-c3cnc(/N=N/c4ccc(N(C)CCCC)cc4)s3)s2)cc1` [Compound B117], in data set [1], the “Maximum absorption wavelength band” value was ≥ 600- nm. The “Whether having lipid solubility” value in data set [2] was “∘ (determined to be lipid soluble when the solubility of the compounds in MEK, PGMEA, cyclo-hexanone, or toluene was 1 wt % or more)”.

As for `CCN(CC)c1ccc(/N=N/c2ncc(-c3cnc(/N=N/c4ccc(N(CC)CC)cc4O)s3)s2)c(O)c1` [Compound B123], in data set [1], the “Maximum absorption wavelength band” value was ≥ 600- nm. Moreover, in data set [2], the “Whether having lipid solubility” value is “∘ (determined to be lipid soluble when the solubility of the compounds in MEK, PGMEA, cyclo-hexanone, or toluene was 1 wt % or more)”.

Regarding `Cc1c(O)c(/N=N/c2ncc(-c3cnc(/N=N/c4cc5ccc(N)cc5c(C)c4O)s3)s2)cc2ccc(N)cc12` [Compound B127], the “Maximum absorption wavelength band” value in data set [1] is ≥ 600- nm. For the same compound, the “Whether having lipid solubility” value in data set [2] is given as “∘ (determined to be lipid soluble when the solubility of the compounds in MEK, PGMEA, cyclo-hexanone, or toluene was 1 wt % or more)”.

With `CCCCOc1ccc(/N=N/c2ccc(/C=C/c3ccc(/N=N/c4ccc(OCCCC)cc4)cc3)cc2)cc1` [Compound C103], the “Maximum absorption wavelength band” value in data set [1] was 400-500 nm. Further, the “Whether having lipid solubility” value in data set [2] is recorded as “∘ (determined to be lipid soluble when the solubility of the compounds in MEK, PGMEA, cyclo-hexanone, or toluene was 1 wt % or more)”.

In the case of `Nc1ccc(/N=N/c2ccc(-c3ccc(-c4ccc(/N=N/c5ccc(N)cc5)cc4)cc3)cc2)cc1` [Compound D110], the “Maximum absorption wavelength band” value in data set [1] is given as 500-600 nm. Besides, the “Whether having lipid solubility” value in data set [2] is listed as “∘ (determined to be lipid soluble when the solubility of the compounds in MEK, PGMEA, cyclo-hexanone, or toluene was 1 wt % or more)”.
